From ChEMBL document CHEMBL1201862, “PubChem BioAssay data set” (2004) come the findings set out here.

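48-hour exposure; five concentrations; linearly interpolated endpoints. At the GI50, growth is halved.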 Activity calls are given as the source filed them. No stated cut-off is given here; in the data, active = GI50 up to about 1.1 µM and inactive = higher. Where only a bound is given, the exact number is not on record here.

Assay in all cases: DTP human tumour cell line panel, 48 h
Assay [1] concerns SN12C.
The test system of assay [2] is TK-10.
For assay [3], the system named is UACC-257.
Assay [4] relates to SK-MEL-5.
The test system of assay [5] is A498.
Assay [6] concerns 786-0.
Assay [7] concerns U-251.
For assay [8], the system named is OVCAR-5.
Assay [9] relates to KM12.
In assay [10] the test system is HT-29.
In assay [11] the test system is SK-MEL-2.
The test system of assay [12] is RPMI-8226.
In assay [13] the test system is UO-31.
Assay [14] concerns UACC-62.
Assay [15] relates to IGROV-1.
For assay [16], the system named is Hs-578T.
Assay [17] relates to OVCAR-3.
The test system of assay [18] is SF-539.
The subject of assay [19] is DU-145.

One may read the GI50 as the concentration giving 50% growth inhibition.

Regarding `CCOC(=O)C1CCCCc2sc(N)c(C#N)c21` (stereo not drawn), the GI50 in assay [1], in assay [2], in assay [3], in assay [4], in assay [5] and in assay [6] was > 100 µM (inactive) each time. Further, the GI50 in [7], in [8], in [9], in [10], in [11] and in [12] was > 100 µM (inactive) in each case. The GI50 in assay [13], in assay [14], in assay [15] and in assay [16] was > 100 µM (inactive) each time.
On to `COc1cc(C2c3cc4c(cc3[C@@H](OCCN(C)C)C3COC(=O)[C@H]23)OCO4)cc(OC)c1O` (stereo partly drawn), for which the GI50 in assay [17] is 1.76 µM (inactive); in assay [1] it was 0.151 µM (active); in assay [2] it was 1.58 µM (inactive); in assay [3], 1.68 µM (inactive); in assay [4], 0.183 µM (active); in [5] it was 0.167 µM (active). Moreover, the GI50 is 0.139 µM (active) in [6]; 0.0849 µM (active) in assay [7]; 0.771 µM (active) in assay [8]; 0.723 µM (active) in assay [9]; 0.902 µM (active) in [10]; 1.29 µM (inactive) in [11]. Also, the GI50 in [12] was 0.0472 µM (active); in assay [13], 0.519 µM (active); in [14], 0.243 µM (active); in [18], 0.164 µM (active); in assay [15] it was 1.52 µM (inactive).
As to `CC(C)C(Sc1nc(-c2ccccc2)c(-c2ccccc2)[nH]1)C(=O)N/N=C/c1ccc([N+](=O)[O-])cc1` (stereo not drawn), the GI50 in assay [17] is 7.19 µM (inactive); in assay [1], 12.5 µM (inactive); in assay [2], 30.1 µM (inactive); in [3], 12.1 µM (inactive); in assay [4] it was 9.23 µM (inactive); in [5] it was 20.5 µM (inactive). In addition, the GI50 in [6] is 14.3 µM (inactive); in [7], 14.6 µM (inactive); in assay [8], 20.1 µM (inactive); in assay [9] it was 10.9 µM (inactive); in assay [10], 6.44 µM (inactive); in assay [11], 12.5 µM (inactive). For the same molecule, the GI50 in [12] was 11.5 µM (inactive); in assay [13], 11.3 µM (inactive); in assay [14], 15.6 µM (inactive); in assay [18], 20.5 µM (inactive); in assay [15], 18.2 µM (inactive).
Regarding `N#CC1=C(c2ccccc2)C(O)(c2ccccc2)NC1=O` (stereo not drawn), the GI50 in assay [17] was > 100 µM (inactive); in [1], 48.3 µM (inactive); in assay [2], > 100 µM (inactive); in assay [3], > 100 µM (inactive); in assay [4], 68.1 µM (inactive); in assay [5] it was 24.6 µM (inactive). Also, the GI50 was > 100 µM (inactive) in [6]; > 100 µM (inactive) in assay [7]; 39.3 µM (inactive) in assay [8]; > 100 µM (inactive) in [9]; 41.1 µM (inactive) in assay [10]; 99.1 µM (inactive) in assay [11]. The GI50 in [12] is 75 µM (inactive); in assay [13], 82.8 µM (inactive); in [14], > 100 µM (inactive); in assay [18] it was 27.7 µM (inactive); in [15], > 100 µM (inactive).
As for `COC(=O)C1=C(c2ccc3c(c2)OCO3)OC(c2ccc3c(c2)OCO3)C1` (stereo not drawn), the GI50 in assay [17] is > 100 µM (inactive); in assay [1], > 100 µM (inactive); in assay [2], > 100 µM (inactive); in [3], 69.7 µM (inactive); in assay [4] it was 68.5 µM (inactive); in assay [5], > 100 µM (inactive). The GI50 is > 100 µM (inactive) in [6]; 93.8 µM (inactive) in [7]; > 100 µM (inactive) in assay [8]; 65.2 µM (inactive) in assay [9]; > 100 µM (inactive) in [10]; > 100 µM (inactive) in assay [11]. For the same molecule, the GI50 was > 100 µM (inactive) in [12]; 38.2 µM (inactive) in [13]; > 100 µM (inactive) in assay [14]; > 100 µM (inactive) in assay [18]; > 100 µM (inactive) in assay [15].
For the molecule `C/C(=N\O)c1sc(-n2nc(-c3ccccc3)cc2-c2ccccc2)nc1C`, the GI50 in assay [17] was 16.3 µM (inactive); in assay [1], 6.79 µM (inactive); in assay [2] it was > 10 µM (inactive); in assay [3], 13.6 µM (inactive); in assay [4], 12 µM (inactive); in assay [5] it was 25.4 µM (inactive). For the same molecule, the GI50 in assay [6] is 11.2 µM (inactive); in assay [7] it was 11.7 µM (inactive); in assay [8], > 10 µM (inactive); in assay [9] it was 11.7 µM (inactive); in assay [10], 13 µM (inactive); in [11] it was 28.3 µM (inactive). For the same molecule, the GI50 in assay [12] was 12.2 µM (inactive); in assay [13], 10.6 µM (inactive); in assay [14], 11.6 µM (inactive); in [18] it was 12.2 µM (inactive); in assay [15], 12.2 µM (inactive).
As to `Cc1nn(C)cc1P(=S)(c1ccccc1)c1ccccc1`, the GI50 is > 100 µM (inactive) in [17]; > 100 µM (inactive) in [1]; > 100 µM (inactive) in assay [2]; 97.1 µM (inactive) in assay [3]; > 100 µM (inactive) in assay [4]; > 100 µM (inactive) in assay [5]. Also, the GI50 was > 100 µM (inactive) in assay [6]; 92.5 µM (inactive) in assay [7]; > 100 µM (inactive) in [8]; 36.4 µM (inactive) in assay [9]; 50.4 µM (inactive) in assay [10]; > 100 µM (inactive) in assay [11]. The GI50 was 28.7 µM (inactive) in assay [12]; > 100 µM (inactive) in assay [13]; 47 µM (inactive) in assay [14]; > 100 µM (inactive) in assay [18]; > 100 µM (inactive) in assay [15].
Consider `CCCCN(C)CC(C(C)=O)C(c1ccccc1)c1c(O)c2ccccc2oc1=O` (stereo not drawn), for which the GI50 in assay [17], in assay [1], in assay [2], in assay [3], in assay [4] and in assay [5] was > 100 µM (inactive) each time. Besides, the GI50 in [6], in assay [7], in assay [8], in assay [9], in assay [10] and in assay [11] was > 100 µM (inactive) throughout. Also, the GI50 in assay [12], in [13], in [14], in [18] and in assay [15] was > 100 µM (inactive) throughout.
In the case of `CC(C)OC(=O)NCCn1cc(-c2ccccc2)nn1`, the GI50 in assay [1], in assay [2], in [3], in assay [4], in assay [6] and in assay [7] was > 100 µM (inactive) each time. For the same molecule, the GI50 in assay [8], in assay [9], in assay [10], in [11], in assay [12] and in assay [18] was > 100 µM (inactive) in each case. In addition, the GI50 in assay [19] was > 100 µM (inactive).
